Laboratory results from US20240351981A1, “NOVEL BISMALEIMIDE COMPOUNDS HAVING IMPROVED SOLUBILITY AND THEIR USE IN CURABLE COMPOSITIONS” (Evonik Operations GmbH, priority 2021, published 2024).

Experiment: Solubility of bismaleimides in organic solvents (saturated solution, gravimetric)
Format: physicochemical
Conditions: in comparison to other aliphatic bismaleimides
Experimental: The solubility of compounds in the present invention is determined as follows: • 10 g of a sample are weighed into a 100 ml conical flask. 50 ml of a solvent are added to the flask and the mixture is stirred with magnetic bar for 1 h at 25° C. to assure the formation of a saturated solution. If the entire sample is dissolved, additional portion of the sample should be added and the mixture should be stirred further for 1 h. In the end, a portion of undissolved material should be clearly seen at the bottom of the flask. After that, the supematant is filtered through a folded filter. Some 15 g of the filtrate are weighed into a tared round-bottom flask, and the solvent is evaporated to dryness on a rotary evaporator at 90° C. under reduced pressure. Finally, the flask is dried in a vacuum drying cabinet at 120° C. for 2 h under reduced pressure, cooled down to room temperature in a desiccator and weighed.
The solubility value is then calculated as:
The solubility of the example and comparative examples was determined as follows: • 10 g of a sample were weighed into a 100 ml conical flask. 50 ml of a solvent were added to the flask and the mixture was stirred with magnetic bar for 1 h at 25° C. to assure the formation of a saturated solution. If the entire sample was dissolved, additional portion of the sample should be added and the mixture should be stirred further for 1 h. […]

Solubility in different organic solvents (in words): highly soluble
Compound: CC1CC(C(CN2C(=O)C=CC2=O)CN2C(=O)C=CC2=O)CC(C)(C)C1 (stereo not shown) [2-(3,3,5-trimethylcyclohexyl)propane-1,3-bismaleimide]
